Active and inactive are the calls of the source. The calls are words filed in the database; no cut-off is given here.
Tests used:
[1] = target: T1, Indoleamine 2,3-dioxygenase 1 (Homo sapiens, UniProt P14902); test: Inhibition of human recombinant indoleamine 2,3-dioxygenase at =< 500000 nM
Target sequence in this assay (P14902 whole entry, looked up): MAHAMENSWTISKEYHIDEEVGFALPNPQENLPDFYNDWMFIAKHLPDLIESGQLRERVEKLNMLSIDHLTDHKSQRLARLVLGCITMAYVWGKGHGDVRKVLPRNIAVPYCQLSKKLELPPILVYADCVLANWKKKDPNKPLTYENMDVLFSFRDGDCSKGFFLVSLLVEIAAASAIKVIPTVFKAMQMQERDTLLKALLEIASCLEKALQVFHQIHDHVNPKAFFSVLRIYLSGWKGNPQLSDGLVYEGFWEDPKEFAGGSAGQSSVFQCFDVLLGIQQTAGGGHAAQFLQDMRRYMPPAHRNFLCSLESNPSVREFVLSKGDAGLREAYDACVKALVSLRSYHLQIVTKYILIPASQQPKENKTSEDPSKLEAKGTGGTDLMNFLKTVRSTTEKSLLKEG

[2] = target: T1, Indoleamine 2,3-dioxygenase 1; test: Inhibition of human recombinant indoleamine 2,3-dioxygenase
Target sequence in this assay (P14902 whole entry): as the sequence (P14902 whole entry, looked up) above

| SMILES | Activity [1] | Ki [2] [nM] |
| --- | --- | --- |
| Oc1cccc2[nH]ccc12 | inactive | – |
| O=C(NCCc1c[nH]c2c1C(=O)C=CC2=O)OCc1ccccc1 | – | 1490 |
| NCCc1c[nH]c2c1C(=O)c1c(c(-c3ccccc3)c3ccccc3c1-c1ccccc1)C2=O | inactive | – |
| O=C1C=CC(=O)c2[nH]ccc21 | – | 190 |
